Measurements published in paper PMC11188305, “Reproductive and fetal toxicity studies of histamine H3 receptor antagonist DL76 used in mice to prevent maximal electroshock-induced seizure” (Frontiers in Pharmacology, 2024).

System: C57/B6 mouse embryos
Assay: Reproductive studies: maternal, fetal and gross/visceral malformation observations after treatment on GD-8 or GD-13
Format: in vivo
Conditions: for Placental weight, IUGR −1SD / Placental weight, IUGR −2SD: fraction (percentage); for Fetal weight, IUGR −1SD / Fetal weight, IUGR −2SD: fraction of fetuses (percentage); for Number of female embryos / Number of male embryos: number (percentage); for Exomphalos / Eye open / Kinky tail / Left/right kidney hypo/descended / Mandible hypoplasia / Maxilla hypoplasia / Microtia/low set microtia / Undescended testis: number of embryos (percentage); for Live fetus/litter / Resorption/litter: parentheses contain percentages
Protocol: Reproductive studies were conducted in adult female mice, averaging 30 gm in weight and 6 weeks in age ([Padmanabhan et al., 2006]; [Bastaki et al., 2018]). Following successful mating, indicated by vaginal plug observation, the plug-positive day was considered gestation day 0 (GD-0). DL76 was administered at various doses (7.5 mg/kg, 15 mg/kg, 30 mg/kg, and 60 mg/kg) through single i.p. injections and three 15 mg/kg injections in 1 day to mouse groups on GD-8 and GD-13 (Tables 1, 2). The control group was injected with normal saline. Appropriate formation of different organs occurs in specific periods of the development of the mouse. These two periods were selected because GD-8 is known to be a critical period for the induction of neural tube defects, craniofacial malformations, and the development of other organs, whereas on GD-13, the retina and other parts are being formed, and most other organs have been formed. The number of implantations, fetal deaths, and resorptions was recorded. Fetal and placental weights were documented separately. After blotting dry, the fetuses were weighed and fixed in 95% ethanol. The reproductive toxicological effects of DL76 were assessed by observing gross and visceral malformations, following [Sterz and Lehmann (1985)], [Abdulrazzaq et al. (1997)], [Padmanabhan et al. (2003)], and [Padmanabhan et al. (2006)].
Deformities of the embryos were identified according to a modified method of [Sterz and Lehmann (1985)], [Abdulrazzaq et al. (1997)], and [Bass et al. (2020)]. Accordingly, the embryos were removed from the 95% ethanol, and the lower part of the abdomen was cut using a razor blade. All organs were checked for abnormalities with a stereo dissecting microscope, and finally, the organs were removed by using forceps.
Statistical analyses employed SPSS 26.0 (IBM Middle East, Dubai, UAE). Data were presented as means ± SEM. […] Fetal abnormality data were presented as counts and percentages. Fisher’s exact test compared the percentages of abnormalities between the control group (saline) and the different dose groups. All tests were two-tailed, and significance was set at p < 0.05.

With `CC(C)(C)c1ccc(OCCCN2CCCCC2)cc1` [DL76, 1-(3-(4-tert-butyl-phenoxy)propyl) piperidine] the “Fetal weight/Litter (g) (Mean ± SD)” value (7.5 mg/kg i.p. on GD-8) was 1.143 ± 0.107 g, the Fetuses/litter (7.5 mg/kg i.p. on GD-8) was 7.714 ± 1.890 and the “Placental weight/Litter (g) (mean ± SD)” value (7.5 mg/kg i.p. on GD-8) was 0.109 ± 0.11 g. The “Placental weight, IUGR −1SD” value (7.5 mg/kg i.p. on GD-8) was 0, the “Placental weight, IUGR −2SD” value (7.5 mg/kg i.p. on GD-8) was 0 and the “Fetal weight, IUGR −1SD” value (7.5 mg/kg i.p. on GD-8) was 0. The “Fetal weight, IUGR −2SD” value (7.5 mg/kg i.p. on GD-8) was 0, the “Number of female embryos” value (7.5 mg/kg i.p. on GD-8) was 19 (43.2) and the “Number of male embryos” value (7.5 mg/kg i.p. on GD-8) was 25 (56.8). The Exomphalos (7.5 mg/kg i.p. on GD-8) was 0, the Eye open (7.5 mg/kg i.p. on GD-8) was 2 (4.5) and the Kinky tail (7.5 mg/kg i.p. on GD-8) was 0. For the same molecule, the Left/right kidney hypo/descended (7.5 mg/kg i.p. on GD-8) was 1 (2.3), the Mandible hypoplasia (7.5 mg/kg i.p. on GD-8) was 3 (6.8) and the Maxilla hypoplasia (7.5 mg/kg i.p. on GD-8) was 3 (6.8). For the same molecule, the Microtia/low set microtia (7.5 mg/kg i.p. on GD-8) was 2 (4.5), the Undescended testis (7.5 mg/kg i.p. on GD-8) was 2 (4.5) and the Live fetus/litter (7.5 mg/kg i.p. on GD-8) was 6.289 (81.48). For the same molecule, the Resorption/litter (7.5 mg/kg i.p. on GD-8) was 1.429 (18.51), the “Fetal weight Litter (g) (Mean ± SD)” value (7.5 mg/kg i.p. on GD-13) was 1.018 ± 0.103 g and the Fetuses/litter (7.5 mg/kg i.p. on GD-13) was 8.000 ± 1.291. The “Placental weight/Litter (g) (mean ± SD)” value (7.5 mg/kg i.p. on GD-13) was 0.105 ± 0.011 g, the “Placental weight, IUGR −2SD” value (7.5 mg/kg i.p. on GD-13) was 0 and the “Fetal weight, IUGR −2SD” value (7.5 mg/kg i.p. on GD-13) was 0. The “Number of female embryos” value (7.5 mg/kg i.p. on GD-13) was 27 (54.0), the “Number of male embryos” value (7.5 mg/kg i.p. on GD-13) was 23 (46.0) and the Exomphalos (7.5 mg/kg i.p. on GD-13) was 0. The Eye open (7.5 mg/kg i.p. on GD-13) was 3 (6.0), the Kinky tail (7.5 mg/kg i.p. on GD-13) was 0 and the Left/right kidney hypo/descended (7.5 mg/kg i.p. on GD-13) was 2 (4.0). The Mandible hypoplasia (7.5 mg/kg i.p. on GD-13) was 4 (8.0), the Microtia/low set microtia (7.5 mg/kg i.p. on GD-13) was 2 (4.0) and the Undescended testis (7.5 mg/kg i.p. on GD-13) was 1 (2.0). For the same molecule, the Maxilla hypoplasia (7.5 mg/kg i.p. on GD-13, * p < 0.05 vs control) was 4 (8.0)*, the Resorption/litter (7.5 mg/kg i.p. on GD-13) was 0.857 (10.71) and the “Fetal weight/Litter (g) (Mean ± SD)” value (15 mg/kg i.p. on GD-8) was 0.993 ± 0.106 g. The Fetuses/litter (15 mg/kg i.p. on GD-8) was 7.167 ± 2.317, the “Placental weight/Litter (g) (mean ± SD)” value (15 mg/kg i.p. on GD-8) was 0.105 ± 0.009 g and the “Placental weight, IUGR −1SD” value (15 mg/kg i.p. on GD-8) was 0. For the same molecule, the “Placental weight, IUGR −2SD” value (15 mg/kg i.p. on GD-8) was 0, the “Fetal weight, IUGR −1SD” value (15 mg/kg i.p. on GD-8) was 0 and the “Number of female embryos” value (15 mg/kg i.p. on GD-8) was 20 (52.6). The “Number of male embryos” value (15 mg/kg i.p. on GD-8) was 18 (47.4), the Exomphalos (15 mg/kg i.p. on GD-8) was 1 (2.6) and the Eye open (15 mg/kg i.p. on GD-8) was 3 (7.9). The Kinky tail (15 mg/kg i.p. on GD-8) was 0, the Left/right kidney hypo/descended (15 mg/kg i.p. on GD-8) was 2 (5.3) and the Mandible hypoplasia (15 mg/kg i.p. on GD-8) was 3 (7.9). The Maxilla hypoplasia (15 mg/kg i.p. on GD-8) was 1 (2.6), the Microtia/low set microtia (15 mg/kg i.p. on GD-8) was 1 (2.6) and the Undescended testis (15 mg/kg i.p. on GD-8) was 0. For the same molecule, the Live fetus/litter (15 mg/kg i.p. on GD-8) was 6.338 (88.37), the Resorption/litter (15 mg/kg i.p. on GD-8) was 0.833 (11.62) and the “Fetal weight Litter (g) (Mean ± SD)” value (15 mg/kg i.p. on GD-13) was 0.998 ± 0.063 g. The Fetuses/litter (15 mg/kg i.p. on GD-13) was 7.571 ± 1.272, the “Placental weight/Litter (g) (mean ± SD)” value (15 mg/kg i.p. on GD-13) was 0.113 ± 0.015 g and the “Placental weight, IUGR −2SD” value (15 mg/kg i.p. on GD-13) was 0. The “Fetal weight, IUGR −2SD” value (15 mg/kg i.p. on GD-13) was 0, the “Number of female embryos” value (15 mg/kg i.p. on GD-13) was 18 (45.0) and the “Number of male embryos” value (15 mg/kg i.p. on GD-13) was 22 (55.0). For the same molecule, the Exomphalos (15 mg/kg i.p. on GD-13) was 0, the Eye open (15 mg/kg i.p. on GD-13) was 2 (5.0) and the Kinky tail (15 mg/kg i.p. on GD-13) was 0. For the same molecule, the Left/right kidney hypo/descended (15 mg/kg i.p. on GD-13) was 1 (2.5), the Mandible hypoplasia (15 mg/kg i.p. on GD-13) was 4 (10.0) and the Maxilla hypoplasia (15 mg/kg i.p. on GD-13) was 3 (7.5). The Microtia/low set microtia (15 mg/kg i.p. on GD-13) was 2 (5.0), the Undescended testis (15 mg/kg i.p. on GD-13) was 1 (2.5) and the Live fetus/litter (15 mg/kg i.p. on GD-13) was 5.714 (75.47). The Resorption/litter (15 mg/kg i.p. on GD-13) was 1.857 (24.53), the “Fetal weight/Litter (g) (Mean ± SD)” value (30 mg/kg i.p. on GD-8) was 1.004 ± 0.047 g and the Fetuses/litter (30 mg/kg i.p. on GD-8) was 8.429 ± 0.787. For the same molecule, the “Placental weight/Litter (g) (mean ± SD)” value (30 mg/kg i.p. on GD-8) was 0.097 ± 0.019 g, the “Fetal weight, IUGR −2SD” value (30 mg/kg i.p. on GD-8) was 0 and the “Number of female embryos” value (30 mg/kg i.p. on GD-8) was 27 (52.9). The “Number of male embryos” value (30 mg/kg i.p. on GD-8) was 24 (47.1), the Exomphalos (30 mg/kg i.p. on GD-8) was 1 (2.0) and the Eye open (30 mg/kg i.p. on GD-8) was 2 (3.9). For the same molecule, the Kinky tail (30 mg/kg i.p. on GD-8) was 1 (2.0), the Mandible hypoplasia (30 mg/kg i.p. on GD-8) was 3 (5.9) and the Microtia/low set microtia (30 mg/kg i.p. on GD-8) was 2 (3.9). For the same molecule, the Undescended testis (30 mg/kg i.p. on GD-8) was 0, the Maxilla hypoplasia (30 mg/kg i.p. on GD-8, * p < 0.05 vs control) was 2 (3.9)* and the Live fetus/litter (30 mg/kg i.p. on GD-8) was 7.286 (86.44). The Resorption/litter (30 mg/kg i.p. on GD-8) was 1.143 (13.56), the “Fetal weight Litter (g) (Mean ± SD)” value (30 mg/kg i.p. on GD-13) was 1.069 ± 0.082 g and the Fetuses/litter (30 mg/kg i.p. on GD-13) was 7.000 ± 1.155. For the same molecule, the “Placental weight/Litter (g) (mean ± SD)” value (30 mg/kg i.p. on GD-13) was 0.103 ± 0.006 g, the “Placental weight, IUGR −2SD” value (30 mg/kg i.p. on GD-13) was 0 and the “Fetal weight, IUGR −2SD” value (30 mg/kg i.p. on GD-13) was 0.
